What all share (format): cell-based, human
For one assay, the system named is CTL 76/6. As to the kind of experiment: TNF release by CTL 76/6 on peptide-pulsed COS-7 cells transfected with HLA-Cw6 cDNA. The settings on record: peptide 20 ug/ml, 90 minutes at 37° C., 3000 CTLs, TNF in supernatant after eighteen hours tested on WEHI-164-13 cells. On the procedure:
Each peptide was pulsed into COS-7 cells previously transfected with HLA-Cw6 cDNA, and combined with CTL 76/6 to determine if TNF release would be induced. Peptides (20 ug/ml) were added to COS-7 cells which had been transfected with the HLA-Cw6 cDNA twenty-four hours previously After incubation at 37° C. for 90 minutes, medium was discarded, and 3000 CTLs were added in 100 microliters of medium, containing 25 units/ml of IL-2. Eighteen hours later, TNF content of supernatant was tested via determining toxicity on WEHI-164-13 cells. […] The second peptide was used for further experiments.

The subject of the next assay is HLA-A29. Put plainly: 51Cr release lytic assay with GAGE-3 to 6 derived peptides (HLA-A29). The settings on record: FIG. 8; successive deletions of SEQ ID NO: 21.
Another assay relates to LB33-EBV cells. As to the kind of experiment: 51Cr release lysis of peptide-incubated LB33-EBV cells (HLA-Cw6 positive) by CTL 76/6. The settings on record: CTL 76/6, effector:target ratio 10:1, four hours at 37° C., varying peptide concentration (FIG. 3). Here is the method:
The lysis assay employed was a chromium release assay following Herin et at., Int. J. Cancer 39;390-396 (1987), the disclosure of which is incorporated by reference. The assay, however, is described herein. The target melanoma cells were grown in vitro, and then resuspended at 10^7 cells/ml in DMEM, supplemented with 10 mM Hepes and 30% FCS, and incubated for 45 minutes at 37° C. with 200 μCi/ml of Na(^51Cr)O4. Labeled cells were washed three times with DMEM supplemented with 10 mM Hepes. These were then resuspended in DMEM supplemented with 10 mM Hepes and 10% FCS, after which 100 ul aliquots containing 10^3 cells, were distributed into 96 well microplates. Samples of PBLs were added in 100 ul of the same medium, and assays were earned out in duplicate. Plates were centrifuged for 4 minutes at 100 g, and incubated for four hours at 37° C. in an 8% CO2 atmosphere.
Plates were centrifuged again, and 100 ul aliquots of supernatant were collected and counted. Percentage of ^51Cr release was calculated as follows: [formula] where ER is observed, experimental ^51Cr release, SR is spontaneous release measured by incubating 10^3 labeled cells in 200 ul of medium alone, and MR is maximum release, obtained by adding 100 ul 0.3% Triton X-100 to target cells.
Various peptides based upon SEQ ID NO: 13 were synthesized, and tested, some of which are presented below. To carry out these tests ^51Cr labelled LB33-EBV cells, which are HLA-Cw6 positive, were incubated with one of the following peptides:
Levels of lysis for positive (“F^+”, MZ2-MEL.3.1), and negative (“F”; MZ2-MEL.2.2.5) control cells are indicated, in FIG. 3.

The test system of a further assay is HLA-Cw6 positive cells. As to the kind of experiment: Lysis of peptide-pulsed HLA-Cw6 positive cells by CTL 82/31. The settings on record: HLA-Cw6 positive cells pulsed with peptide; results not reported in detail. Here is the method: In results not reported here, a second CTL was tested (CTL 82/31).

Ends that are not written are not given here.

Description for HLA-A29: The lysis assay employed was a chromium release assay following Herin et at., Int. […] The target melanoma cells were grown in vitro, and then resuspended at 10^7 cells/ml in DMEM, supplemented with 10 mM Hepes and 30% FCS, and incubated for 45 minutes at 37° C. with 200 μCi/ml of Na(^51Cr)O4. Labeled cells were washed three times with DMEM supplemented with 10 mM Hepes. These were then resuspended in DMEM supplemented with 10 mM Hepes and 10% FCS, after which 100 ul aliquots containing 10^3 cells, were distributed into 96 well microplates. Samples of PBLs were added in 100 ul of the same medium, and assays were earned out in duplicate. Plates were centrifuged for 4 minutes at 100 g, and incubated for four hours at 37° C. in an 8% CO2 atmosphere.
The peptide (SEQ ID NO: 21) was tested in a ^51Cr release experiment, following the method described supra.
Successive deletions were prepared, and tested for their ability to provoke lysis, again using the ^51Cr lytic assay.

With MSWRGRSTYRPRPRR [SEQ ID NO: 12], the TNF induced entry in the assay with CTL 76/6 is listed as “less than 10 pg/ml”.
With RSTYYWPRPRRYVQ [SEQ ID NO: 21], the “ability to provoke lysis (51Cr release)” value in the assay with HLA-A29 is “did provoke lysis”.
As for TRPRPRRYV [SEQ ID NO: 6], the “CTL lysis (51Cr release)” value with LB33-EBV cells is given as “induced CTL lysis albeit to a lesser extent”.
The same measure, in the same setting: the value for TYRPRPRRY [SEQ ID NO: 5] was “induced CTL lysis albeit to a lesser extent”.
Turning to TYRPRPRRYVEPPEMI [SEQ ID NO: 13], the TNF induced result in the assay with CTL 76/6 is reported as “more than 30 pg/ml”.
Turning to “Tyr Tyr Trp Pro Arg Pro Arg Arg Tyr [SEQ ID NO: 22]”, the “ability to provoke lysis (51Cr release)” value in the assay on HLA-A29 is “shortest peptide to provoke lysis”.
Take “YRPRPRRY [SEQ ID NO: 4, octamer tumor rejection antigen presented by HLA-Cw6]”: the “CTL lysis (51Cr release)” value with LB33-EBV cells was “the best peptide”. Further, the “lysis by second CTL (CTL 82/31)” value in the assay on HLA-Cw6 positive cells is listed as “lysed HLA-Cw6 positive cells”.

For the origin of these results see patent US6939707B2, “Isolated nucleic acid molecules which encode GAGE genes and uses thereof” (Ludwig Institute for Cancer Research, priority 1993, dated 2005).
